# Results reported in patent US6096338A, “Delivery systems for hydrophobic drugs” (R. P. Scherer Corporation, priority 1994, dated 2000).
# Read-outs that look alike come from different tables or passages of the source.
# How the values were obtained:
# [1] = Aqueous solubility of hydrophobic drugs in simulated intestinal fluid with bile and lipolytic products; assay type: physicochemical; conditions: pH 6.5
# Experimental: As stated above, the aqueous solubilities of hydrophobic drugs can be increased by incorporation into mixed micelles, formed by bile salts and lipolytic products of triglyceride oil digestion.
# An aqueous medium was prepared to simulate the intestinal environment using the following components:
# 100 mls pH 6.5 Tris-maleate buffer solution containing:
# The medium was prepared as described in the in vitro test procedure described above. To this simulated intestinal fluid a series of different components were added to evaluate the enhancement of the aqueous solubility of a range of hydrophobic drugs. The components which were added were:
# Experiment (i) Nothing (control experiment)
# 15 mM crude ox gallbladder bile
# 15 mM crude ox gallbladder bile +
# 500 mg of medium chain lipolytic
# products (137 mg capric acid, 98 mg
# glyceryl monocaprate, 151 mg
# caprylic acid and 114 mg glyceryl
# 500 mg of long chain lipolytic
# products (307 mg oleic acid and
# 193 mg glyceryl monooleate). […]
# Then 100 mg of drug, in powder form, was added to the reaction medium, the pH was adjusted to 6.5 and the medium was mixed for 21/2 hours. At this time a sample was taken from the vessel, filtered through a 0.2 micron filter and the quantity of drug in solution in the simulated intestinal fluid was determined by a specific HPLC method.
# Pancreatic lipase = assay: In vitro lipolysis test (pH-stat titration) of fractionated coconut oil (FCO) with hydrophilic and lipophilic surfactants; assay type: biochemical; conditions: FCO with Cremophor RH40 and lipophilic surfactant; FIG. 2
# Excerpt: In Vitro Test for Determining the Suitability of Hydrophilic and Lipophilic Surfactants
# Pancreatic lipase in the presence of colipase catalyses the lipolysis (also termed hydrolysis or de-esterification) of emulsified oils, a process that results in the production of fatty acids. The rate of fatty acid generation, and thus a measure of the rate of lipolysis, can be followed via continuous titration with a pH-stat as described below.
# The pH-stat should comprise, for example, a pH-meter, an autoburette and an autotitration unit. These instruments can be obtained from Radiometer A/S, Copenhagen, Denmark as product numbers PHM82, ABU80 and TTT80, respectively.
# The reaction should be performed in a glass thermostatted vessel maintained at 37.5±0.5° C. This vessel should have an internal diameter of approximately 7.5 cm and a height of approximately 7.0 cm. During an experiment the reaction vessel should be placed beneath the titration assembly unit so that the tips of the pH-electrodes and the stirrer are all at least 1 cm beneath the liquid level. […]
# At time=30 minutes, titrate the pH up to precisely 6.50 (e.g. using 1.0M NaOH using the autotitrator). Record the volume of titrant dispensed, then re-zero the titrant display reading on the autotitrator. […]
# [2] = Aqueous solubility of progesterone in buffer, bile and lipolytic products; assay type: physicochemical; conditions: for solubility at 1 h / solubility at 2 h: pH 6.5, 37° C.; for solubility at 1 h: read-out: Progesterone solubility after 60 minutes; for solubility at 2 h: read-out: Progesterone solubility after 120 minutes
# Experimental: The solubility of progesterone was determined as follows:
# The following five aqueous media were each prepared at 37° C. in the pH-Stat reaction vessel. The pH of each solution was adjusted to exactly 6.50 by the addition of an appropriate volume of 1.0 molar sodium hydroxide solution. […]
# pH 6.50 tris-maleate buffer solution (containing 5 mM calcium chloride and 150 mM sodium chloride) pH 6.50 tris-maleate buffer solution+15 mM ox bile pH 6.50 tris-maleate buffer solution+15 mM ox bile+0.5% hydrophilic surfactant (Cremophor RH40) pH 6.50 tris-maleate buffer solution+15 mM ox bile+medium chain lipolytic products viz 53% by weight of caprylic acid-monocaprylate (2:1 molar ratio) and 47% by weight of capric acid-monocaprate (2:1 molar ratio) […]
# pH 6.50 tris maleate buffer solution+15 mM ox bile+0.5% long chain lipolytic products viz oleic acid and monoolein (2:1 molar ratio) The following procedures was performed in triplicate. 15 mls of each of the above aqueous media were added to approximately 20 mgs (excess) of progesterone in 21 ml glass vials. Each vial was whirlmixed and then maintained at 37° C. in an ultrasonic bath for 120 minutes. After 60 and 120 minutes, 3 ml of each solution were extracted for progesterone solubility determination by HPLC, using the following standard procedure:
# Each sample is filtered through a 13 mm 0.2 μm PVDF syringe filter (supplied by Whatman®). The first 1.5 ml of filtrate is discarded. 0.8 ml of the remaining filtrate is combined with 0.8 ml of acetonitrile (the mobile phase) in an amber glass vial. The vial is then hermetically sealed and shaken by hand and then analysed.
# [3] = Buffer + 15 mM ox bile + 0.5% MCLPs
structure (smiles),measurement,setting,value
"CC(C)(Sc1cc(C(C)(C)C)c(O)c(C(C)(C)C)c1)Sc1cc(C(C)(C)C)c(O)c(C(C)(C)C)c1 [Probucol, probucol]",Buffer solubility,[1],below the detection limit of assay
CCCCCCCC/C=C\CCCCCCCC(=O)O [oleic acid],Ability to overcome inhibitory effects of Cremophor RH40 on rate of FCO lipolysis,Pancreatic lipase,capable of overcoming the inhibitory effects
"CC(=O)[C@H]1CC[C@H]2[C@@H]3CCC4=CC(=O)CC[C@]4(C)[C@H]3CC[C@]12C [Progesterone, progesterone]",Further increase in solubility with long chain lipolytic products,"[2]; 0.5% long chain lipolytic products, vs bile salts",approximately 3 fold
same,Further increase in solubility with medium chain lipolytic products,"[2]; 0.5% medium chain lipolytic products, vs bile salts",approximately 3 fold
same,solubility at 1 h,[2]; Buffer + 15 mM bile,46.6 ± 0.47 µg/mL
same,solubility at 2 h,[2]; Buffer + 15 mM bile,45.5 ± 1.08 µg/mL
same,solubility at 1 h,[2]; Buffer + 15 mM ox bile + 0.5% LCLPs,153 ± 6.17 µg/mL
same,solubility at 1 h,[2]; [3],136 ± 11 µg/mL
same,solubility at 2 h,[2]; [3],142 ± 6.31 µg/mL
same,solubility at 1 h,"[2]; aqueous buffer, Buffer alone",10.1 ± 0.25 µg/mL
same,solubility at 2 h,"[2]; aqueous buffer, Buffer alone",9.47 ± 1.16 µg/mL
same,Increase in solubility in bile salts compared to buffer alone,[2]; bile salts vs buffer alone,approximately 4.5 fold
